From ChEMBL document CHEMBL1201862, “PubChem BioAssay data set” (2004)
The source made the active and inactive calls.

Assays:
Melanocortin receptor 4 = Melanocortin receptor 4 (Homo sapiens, UniProt P32245); experiment: MC4R antagonist potency on cAMP, dose response, cell-based, TR-FRET, biased antagonists (AID 602298); assay type: functional;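 also: antagonist potency against agonist-stimulated cAMP production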
[1] = nonselective inhibitors of cellular cAMP signaling, dose response, counter-screen for MC4R biased antagonist project, cell-based, TR-FRET cAMP detection (AID 602305); assay type: functional;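 also: U2OS cells stimulated with forskolin near its EC80 as the cAMP inducer; potency is for inhibition of forskolin-stimulated cAMP signaling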
Trypsin = Trypsin (Sus scrofa, UniProt P00761); experiment: porcine trypsin inhibitors, dose response, selectivity assay for Rce1 protease inhibitor project, biochemical, quenched peptide fluorescence, cherry-pick (AID 488789)
Chain of Trypsin (P00761 whole entry): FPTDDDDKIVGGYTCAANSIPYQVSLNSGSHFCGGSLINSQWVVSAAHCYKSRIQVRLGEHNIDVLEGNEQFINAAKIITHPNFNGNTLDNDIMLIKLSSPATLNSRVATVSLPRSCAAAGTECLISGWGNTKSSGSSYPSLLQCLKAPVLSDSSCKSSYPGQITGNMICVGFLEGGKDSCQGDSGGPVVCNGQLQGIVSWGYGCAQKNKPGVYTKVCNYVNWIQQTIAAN

CAAX prenyl protease 2 = CAAX prenyl protease 2 (Homo sapiens, UniProt Q9Y256); experiment: human Rce1 protease inhibitors, dose response, biochemical, yeast membranes, quenched-peptide fluorescence, cherry-pick (AID 588849)
Chain of CAAX prenyl protease 2 (Q9Y256 whole entry): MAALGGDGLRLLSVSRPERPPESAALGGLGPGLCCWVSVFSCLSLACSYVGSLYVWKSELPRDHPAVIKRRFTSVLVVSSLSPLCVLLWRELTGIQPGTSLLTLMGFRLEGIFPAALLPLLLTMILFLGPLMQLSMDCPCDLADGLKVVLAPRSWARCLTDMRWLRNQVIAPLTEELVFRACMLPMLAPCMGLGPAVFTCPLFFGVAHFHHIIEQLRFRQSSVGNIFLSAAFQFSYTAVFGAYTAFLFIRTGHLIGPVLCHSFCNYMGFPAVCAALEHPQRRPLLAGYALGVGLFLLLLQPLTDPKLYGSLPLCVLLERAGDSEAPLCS

Escherichia coli = experiment: microbe, parasite or virus in culture
[2] = target: Proto-oncogene tyrosine-protein kinase receptor Ret (Homo sapiens, UniProt P07949); assay type: functional;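 also: measured within a kinome-wide profiling panel, RET as the panel member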
Chain of Proto-oncogene tyrosine-protein kinase receptor Ret (P07949 whole entry): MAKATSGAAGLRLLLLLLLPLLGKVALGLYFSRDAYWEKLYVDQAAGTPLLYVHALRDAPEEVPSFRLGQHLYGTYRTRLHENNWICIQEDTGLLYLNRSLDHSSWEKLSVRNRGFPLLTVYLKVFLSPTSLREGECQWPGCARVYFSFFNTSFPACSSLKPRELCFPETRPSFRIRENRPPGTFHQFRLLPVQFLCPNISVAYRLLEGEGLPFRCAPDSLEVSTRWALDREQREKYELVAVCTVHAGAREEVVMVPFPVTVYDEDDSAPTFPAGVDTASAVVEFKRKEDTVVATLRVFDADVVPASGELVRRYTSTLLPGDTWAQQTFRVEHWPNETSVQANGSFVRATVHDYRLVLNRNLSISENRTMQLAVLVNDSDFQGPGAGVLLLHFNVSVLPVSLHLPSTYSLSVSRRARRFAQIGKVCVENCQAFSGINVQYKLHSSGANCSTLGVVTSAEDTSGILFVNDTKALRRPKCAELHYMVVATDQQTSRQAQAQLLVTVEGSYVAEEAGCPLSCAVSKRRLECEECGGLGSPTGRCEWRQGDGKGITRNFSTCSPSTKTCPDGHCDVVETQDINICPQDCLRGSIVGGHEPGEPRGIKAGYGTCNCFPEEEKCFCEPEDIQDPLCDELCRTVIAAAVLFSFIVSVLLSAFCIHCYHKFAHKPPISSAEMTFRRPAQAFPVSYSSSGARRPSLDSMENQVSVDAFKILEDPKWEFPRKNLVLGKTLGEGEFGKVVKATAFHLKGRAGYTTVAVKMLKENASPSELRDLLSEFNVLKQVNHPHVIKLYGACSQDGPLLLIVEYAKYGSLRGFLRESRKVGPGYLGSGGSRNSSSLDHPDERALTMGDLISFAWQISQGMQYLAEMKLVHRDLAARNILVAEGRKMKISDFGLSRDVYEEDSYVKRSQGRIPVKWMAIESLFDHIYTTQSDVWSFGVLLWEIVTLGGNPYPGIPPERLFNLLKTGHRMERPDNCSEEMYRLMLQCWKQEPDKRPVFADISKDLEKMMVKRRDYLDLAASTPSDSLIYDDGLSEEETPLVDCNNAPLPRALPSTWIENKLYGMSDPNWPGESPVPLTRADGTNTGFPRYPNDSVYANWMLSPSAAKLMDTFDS

[3] = target: Dual specificity protein kinase CLK1 (Homo sapiens, UniProt P49759); experiment: CLK1 kinase inhibitors, off-target check, dose response, selectivity assay for Dyrk1A inhibitor project, biochemical, cherry-picked samples (AID 588811)
Chain of Dual specificity protein kinase CLK1 (P49759 whole entry): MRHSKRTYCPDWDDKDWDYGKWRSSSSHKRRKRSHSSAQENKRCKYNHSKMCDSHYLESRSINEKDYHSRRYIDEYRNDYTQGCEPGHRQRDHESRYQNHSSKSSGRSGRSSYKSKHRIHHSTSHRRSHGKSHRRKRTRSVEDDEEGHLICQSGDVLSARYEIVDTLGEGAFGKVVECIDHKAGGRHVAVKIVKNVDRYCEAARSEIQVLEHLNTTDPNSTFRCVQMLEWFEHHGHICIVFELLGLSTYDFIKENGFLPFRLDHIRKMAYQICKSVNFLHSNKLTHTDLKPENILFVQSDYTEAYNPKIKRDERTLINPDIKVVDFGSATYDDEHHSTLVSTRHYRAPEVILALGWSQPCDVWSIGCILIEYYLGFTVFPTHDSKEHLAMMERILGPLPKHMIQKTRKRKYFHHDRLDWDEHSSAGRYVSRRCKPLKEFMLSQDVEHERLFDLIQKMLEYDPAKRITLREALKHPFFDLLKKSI

[4] = target: Dual specificity tyrosine-phosphorylation-regulated kinase 1A (Rattus norvegicus, UniProt Q63470); assay type: biochemical, Homo sapiens
[5] = target: T1, Endoribonuclease toxin MazF (Escherichia coli K-12, UniProt P0AE70); experiment: MazF toxin RNase activators, dose response, biochemical, fluorescence, single-stranded RNA substrate, uHTS hits (AID 588481); assay type: functional
T1 sequence (P0AE70 whole entry): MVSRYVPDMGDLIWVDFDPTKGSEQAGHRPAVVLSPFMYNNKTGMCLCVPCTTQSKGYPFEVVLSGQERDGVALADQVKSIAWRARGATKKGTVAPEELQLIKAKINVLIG

[6] = target: T1, Endoribonuclease toxin MazF; experiment: fluorescent RNA oligo signal without MazF, dose response, counter-screen for MazEF activator project, biochemical, fluorescence, single-stranded RNase substrate (AID 588502); assay type: functional
[7] = target: Delta-type opioid receptor (Homo sapiens, UniProt P41143); experiment: Counterscreen for agonists of heterodimerization of the mu 1 (OPRM1) and delta 1 (OPRD1) opioid receptors: Luminescence-based cell-based high throughput dose response assay to identify agonists of OPRD1 homodimerization. [Related pubchem assays (depositor defined):AID504326, AID504355, AID504692, AID504904, AID504905]; assay type: functional
Chain of Delta-type opioid receptor (P41143 whole entry): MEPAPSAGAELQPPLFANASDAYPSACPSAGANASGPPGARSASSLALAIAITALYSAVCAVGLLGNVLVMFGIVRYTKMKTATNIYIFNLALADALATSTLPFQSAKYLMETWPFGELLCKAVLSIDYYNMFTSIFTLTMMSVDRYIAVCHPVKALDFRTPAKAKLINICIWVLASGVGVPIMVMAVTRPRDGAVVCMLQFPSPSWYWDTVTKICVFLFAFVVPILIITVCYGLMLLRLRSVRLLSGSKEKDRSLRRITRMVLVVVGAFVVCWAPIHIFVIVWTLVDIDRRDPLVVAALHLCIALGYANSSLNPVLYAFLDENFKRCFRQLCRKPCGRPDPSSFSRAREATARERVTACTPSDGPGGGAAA

Mu-type opioid receptor = Mu-type opioid receptor (Homo sapiens, UniProt P35372); experiment: Counterscreen for agonists of heterodimerization of the mu 1 (OPRM1) and delta 1 (OPRD1) opioid receptors: Luminescence-based cell-based high throughput dose response assay to identify agonists of OPRM1 homodimerization.; assay type: functional;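 also: U2OS cells expressing OPRM1 and beta-arrestin as split beta-galactosidase partners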
Chain of Mu-type opioid receptor (P35372 whole entry): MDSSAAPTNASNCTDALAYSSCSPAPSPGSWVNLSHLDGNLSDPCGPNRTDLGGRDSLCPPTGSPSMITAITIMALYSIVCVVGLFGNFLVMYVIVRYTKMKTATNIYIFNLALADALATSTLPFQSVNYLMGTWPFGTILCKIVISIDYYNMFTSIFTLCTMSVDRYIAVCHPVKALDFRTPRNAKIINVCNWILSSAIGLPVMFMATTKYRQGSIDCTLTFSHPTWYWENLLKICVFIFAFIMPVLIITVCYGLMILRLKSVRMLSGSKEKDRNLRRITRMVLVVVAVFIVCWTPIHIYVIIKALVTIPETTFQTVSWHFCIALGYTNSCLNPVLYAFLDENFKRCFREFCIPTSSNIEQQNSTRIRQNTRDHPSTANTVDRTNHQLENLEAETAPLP

[8] = target: 5-hydroxytryptamine receptor 5A (Homo sapiens, UniProt P47898); experiment: Counterscreen for agonists of OPRM1-OPRD1 heterodimerization: luminescence-based cell-based high throughput dose response assay to identify agonists of 5-hydroxytryptamine (serotonin) 5A receptor (HTR5A). [Related pubchem assays (depositor defined):AID504326, AID504355, AID504692, AID504904, AID504905]; assay type: functional
Chain of 5-hydroxytryptamine receptor 5A (P47898 whole entry): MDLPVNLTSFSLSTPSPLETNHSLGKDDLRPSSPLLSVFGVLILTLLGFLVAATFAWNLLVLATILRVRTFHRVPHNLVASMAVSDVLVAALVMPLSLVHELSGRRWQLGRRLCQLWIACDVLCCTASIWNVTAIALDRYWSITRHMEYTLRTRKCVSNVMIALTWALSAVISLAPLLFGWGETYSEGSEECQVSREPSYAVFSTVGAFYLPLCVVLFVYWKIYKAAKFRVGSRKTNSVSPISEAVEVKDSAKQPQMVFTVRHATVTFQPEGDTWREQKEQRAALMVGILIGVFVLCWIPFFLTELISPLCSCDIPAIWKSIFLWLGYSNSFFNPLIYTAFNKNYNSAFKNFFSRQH

[9] = A549 cell cytotoxicity, dose response, cytotoxicity control, plate reader, cherry-pick, antagonist series (AID 743412); assay type: functional, cell-based
[10] = HepG2 cell cytotoxicity, dose response, cytotoxicity control, plate reader, cherry-pick, antagonist series (AID 743416); assay type: functional, cell-based
[11] = LGR2 antagonists, dose response, cell-based, HEK293, CRE-luciferase reporter, cherry pick, set 2 (AID 743343); assay type: functional;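 also: transfected cells were stimulated with diluted bursicon conditioned medium after compound addition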
[12] = MC4R antagonists, dose response, counter-screen for LGR2 antagonist project, cell-based, plate reader, cherry pick (AID 743444); assay type: functional;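 also: transfected HEK 293 cells stimulated with alpha-MSH peptide; potency of inhibitors of the alpha-MSH evoked signal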
[13] = HEK293 cell cytotoxicity, dose response, cytotoxicity control, plate reader, cherry-picked samples (AID 743446); assay type: functional, cell-based
[14] = inhibitors of firefly luciferase expression or activity, dose response, H4 neuroglioma cells, luminescence (AID 1990); assay type: functional, cell-based
[15] = Luminescence Cell-Based Dose Response HTS to Identify Inhibitors of 5'UTR Stem-Loop Driven Prion Protein mRNA Translation in H4 Neuroglioblastoma Cells. [Related pubchem assays: 1827 (Project Summary), 1813 (Primary HTS)]; assay type: functional
[16] = inhibitors of SNCA 5'UTR-driven reporter translation, confirmation, H4 neuroglioma cells, luminescence (AID 1988); assay type: functional, cell-based
[17] = inhibitors of intracellular T. cruzi replication, confirmation, NIH3T3 host cells, beta-gal luminescence (AID 2044); assay type: functional, cell-based;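 also: intracellular parasites grown in NIH/3T3 mouse fibroblasts as host cells; luminescent beta-galactosidase reporter signal from transgenic T. cruzi replicating inside host cells; inhibitors lower the luminescence signal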
[18] = cytotoxicity toward NIH3T3 fibroblasts, dose response, counter-screen, cell-based, ATP luminescence, mouse fibroblasts (AID 2010); assay type: functional;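 also: cells exposed to compound for about 90 hours before reading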
[19] = target: T2, Microphthalmia-associated transcription factor (Homo sapiens, UniProt O75030); experiment: TRPM1 promoter luciferase signal decrease, dose response, MITF inhibitor project, cell-based, SK-MEL-5, cherry-picked, set 3 (AID 493073); assay type: functional
T2 sequence (O75030 whole entry): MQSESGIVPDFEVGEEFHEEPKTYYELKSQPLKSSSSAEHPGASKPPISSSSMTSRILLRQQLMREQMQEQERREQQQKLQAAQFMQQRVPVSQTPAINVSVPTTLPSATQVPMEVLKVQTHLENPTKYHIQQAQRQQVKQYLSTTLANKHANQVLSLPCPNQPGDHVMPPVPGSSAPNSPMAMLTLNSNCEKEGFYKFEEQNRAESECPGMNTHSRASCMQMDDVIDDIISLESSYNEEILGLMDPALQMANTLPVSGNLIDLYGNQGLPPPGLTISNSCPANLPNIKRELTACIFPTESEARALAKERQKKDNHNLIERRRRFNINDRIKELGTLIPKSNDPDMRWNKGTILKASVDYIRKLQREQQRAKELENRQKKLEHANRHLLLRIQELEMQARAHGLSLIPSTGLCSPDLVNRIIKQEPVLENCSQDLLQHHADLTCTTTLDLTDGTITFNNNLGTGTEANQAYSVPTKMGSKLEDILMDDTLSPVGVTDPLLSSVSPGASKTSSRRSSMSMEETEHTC

HEK293 [20] = experiment: cytotoxicity in HEK293T NF-kB-Luc cells, SAR follow-up, cytotoxicity control for NF-kB activator project, cell-based, resazurin fluorescence (AID 493251); assay type: functional; details: Homo sapiens
Jurkat = experiment: SAR Analysis of small molecule inhibitors of T-cell specific antigen receptor-induced NF-kB activation in a Jurkat cell line using a luminescence assay - Set 2. [Related pubchem assays (depositor defined):AID435003, AID435012, AID465]; assay type: functional, cell-based; details: Homo sapiens
HEK293 [21] = experiment: SAR Analysis of small molecule inhibitors of T-cell specific antigen receptor-induced NF-kB activation in a HEK-293T cell line using a luminescence assay - Set 2. [Related pubchem assays (depositor defined):AID435003, AID435012, AID489026]; assay type: functional, cell-based; details: Homo sapiens
[22] = target: Beta-2 adrenergic receptor (Homo sapiens, UniProt P07550); experiment: beta2AR agonists driving receptor internalization, dose response, cell-based, FAP fluorogen, flow cytometry, cherry pick 1 (AID 588763); assay type: functional
Chain of Beta-2 adrenergic receptor (P07550 whole entry): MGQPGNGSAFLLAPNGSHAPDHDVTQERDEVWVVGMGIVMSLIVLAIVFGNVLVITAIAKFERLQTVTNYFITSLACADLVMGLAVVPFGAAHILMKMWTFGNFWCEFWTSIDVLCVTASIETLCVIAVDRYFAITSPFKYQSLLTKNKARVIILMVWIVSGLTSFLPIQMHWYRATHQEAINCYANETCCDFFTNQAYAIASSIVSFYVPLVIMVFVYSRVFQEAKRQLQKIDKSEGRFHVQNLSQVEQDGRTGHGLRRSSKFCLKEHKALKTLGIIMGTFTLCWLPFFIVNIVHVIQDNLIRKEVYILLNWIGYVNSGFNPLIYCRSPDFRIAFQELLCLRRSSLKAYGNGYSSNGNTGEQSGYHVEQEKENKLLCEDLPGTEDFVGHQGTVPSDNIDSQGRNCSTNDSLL

[23] = target: Melanin-concentrating hormone receptor 1 (Homo sapiens, UniProt Q99705); experiment: Late-stage fluorescence-based counterscreen for antagonists of the G-protein coupled receptor 7 (GPR7): cell-based dose response assay to identify antagonists of the melanin-concentrating hormone receptor 1 (MCHR1) Set 6.; assay type: functional
Chain of Melanin-concentrating hormone receptor 1 (Q99705 whole entry): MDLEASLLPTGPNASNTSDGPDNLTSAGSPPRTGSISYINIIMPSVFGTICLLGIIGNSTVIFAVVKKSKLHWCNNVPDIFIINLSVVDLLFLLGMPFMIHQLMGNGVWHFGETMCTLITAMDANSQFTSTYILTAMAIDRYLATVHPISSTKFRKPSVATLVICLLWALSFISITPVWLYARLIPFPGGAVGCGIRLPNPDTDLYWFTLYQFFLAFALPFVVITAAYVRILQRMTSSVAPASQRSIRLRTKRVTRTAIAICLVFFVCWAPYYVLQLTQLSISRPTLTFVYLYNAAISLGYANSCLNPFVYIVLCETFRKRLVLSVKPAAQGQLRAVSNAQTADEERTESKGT

[24] = target: T3, Neuropeptides B/W receptor type 1 (Homo sapiens, UniProt P48145); experiment: GPR7 antagonist potency, late-stage follow-up, cell-based, fluorescence, dose response, set 6 (AID 588583); assay type: functional
T3 sequence (P48145 whole entry): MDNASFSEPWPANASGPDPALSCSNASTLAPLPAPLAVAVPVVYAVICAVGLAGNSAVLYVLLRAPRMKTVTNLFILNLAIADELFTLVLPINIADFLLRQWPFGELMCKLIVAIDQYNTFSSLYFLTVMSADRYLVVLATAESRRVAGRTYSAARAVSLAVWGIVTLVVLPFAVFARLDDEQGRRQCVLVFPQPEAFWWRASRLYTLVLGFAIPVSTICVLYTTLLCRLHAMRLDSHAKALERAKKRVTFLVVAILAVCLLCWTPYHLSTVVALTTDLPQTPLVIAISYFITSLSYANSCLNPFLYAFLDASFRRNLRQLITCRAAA

Chain of Melanocortin receptor 4 (P32245 whole entry): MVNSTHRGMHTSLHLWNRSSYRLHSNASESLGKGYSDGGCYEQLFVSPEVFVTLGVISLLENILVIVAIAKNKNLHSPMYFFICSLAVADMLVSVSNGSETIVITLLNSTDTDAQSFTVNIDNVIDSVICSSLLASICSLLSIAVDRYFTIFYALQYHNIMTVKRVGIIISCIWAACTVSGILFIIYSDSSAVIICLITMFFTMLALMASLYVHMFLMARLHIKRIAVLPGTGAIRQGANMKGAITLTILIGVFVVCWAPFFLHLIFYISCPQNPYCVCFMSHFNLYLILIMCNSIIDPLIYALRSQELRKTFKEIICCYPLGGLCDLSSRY

O=C(COC(=O)CNS(=O)(=O)c1cccc(Br)c1)Nc1ccccc1Sc1ccccc1
IC50 (Melanocortin receptor 4): 8.42 µM (active) | IC50 [1]: > 64.6 µM (inactive)

Cc1cc(C)c2nc(-c3ccco3)cc(C(=O)O)c2c1
AC50 (Trypsin): 10.9 µM (active) | AC50 (CAAX prenyl protease 2): 15.3 µM (active)

COc1ccccc1NS(=O)(=O)c1ccc2nc(S)oc2c1
AC50 (Escherichia coli): > 380 µM (inactive)

CC(SCC1CCC2CC1C2(C)C)C(N)=O (stereo not given)
Ki [2]: 100 µM (active)

COc1cccc(NC(=O)Nc2ccc3c(c2)N(C)C(=O)CS3)c1
AC50 [3]: 9.67 µM (active) | AC50 [4]: 5.3 µM (active)

CN(C)c1ccc(/C=N/N(CCC#N)C2=NS(=O)(=O)c3ccccc32)cc1
EC50 [5]: > 99 µM (inactive) | EC50 [6]: 42.5 µM (inactive)

CC(C)n1ncc2c(C(=O)Nc3cccc(C#N)c3)cc(C3CC3)nc21
EC50 [7]: > 92.5 µM (inactive) | EC50 (Mu-type opioid receptor): 18 µM (inactive) | EC50 [8]: > 92.5 µM (inactive) | AC50 [9]: 39.1 µM (active) | AC50 [10]: 21.8 µM (active) | AC50 [11]: 1.46 µM (active) | AC50 [12]: 0.789 µM (active) | AC50 [13]: 24.3 µM (active)

CCN1CCN(c2ccc(NC(=O)c3ccc([N+](=O)[O-])o3)cc2Cl)CC1
EC50 [14]: > 120 µM (not active) | EC50 [15]: > 120 µM (not active) | EC50 [16]: 8.46 µM (active) | EC50 [17]: > 30 µM (not active) | EC50 [18]: 4.34 µM (active) | AC50 [19]: 9.54 µM (active) | IC50 (HEK293 [20]): 49.2 µM (inactive) | IC50 (Jurkat): 15.8 µM (active) | IC50 (HEK293 [21]): 16.5 µM (active) | EC50 [22]: 6.22 µM (active)

Cc1cnn(Cc2cccc3ccccc23)c(=O)c1C(C#N)c1ccccc1 (stereo not given)
IC50 [23]: 6.59 µM (active) | IC50 [24]: 6.59 µM (active)
